Test results: ChEMBL document CHEMBL1759992
Active and inactive are the calls of the source. The calls are words filed in the database; no cut-off is given here.

Experiments:
Rattus norvegicus [1] = experiment: Inhibition of lethal factor-induced toxicity in Fischer 344 rat assessed as enhancement of survival rate at 5 mg/kg, iv followed by administration of 10 ug lethal toxin after 20 to 30 mins of compound dosing; type: functional, organism-based; parameters: dose 5 mg/kg
Rattus norvegicus [2] = experiment: Inhibition of lethal factor-induced toxicity in Fischer 344 rat assessed as enhancement of survival rate at 2.5 mg/kg, iv followed by administration of 10 ug lethal toxin after 20 to 30 mins of compound dosing; type: functional, organism-based; parameters: dose 2.5 mg/kg

SMILES	Survival (Rattus norvegicus [1])	Survival (Rattus norvegicus [2])
CO[C@H](C[C@H](CCCCCNCCc1ccc(F)cc1)C(=O)NO)c1ccc(F)cc1	inactive	
Cc1cc(O[C@H](CCCCCNCc2ccc(F)cc2)C(=O)NO)cc(C)c1F	inactive	
CO[C@H](C[C@H](CCCCNCc1ccc(F)cc1)C(=O)NO)c1ccc(F)cc1	Active	inactive
Cc1cc(CNCCCC[C@@H](Oc2ccc(F)c(C)c2)C(=O)NO)ccc1F	inactive	
Cc1cc(CNCCCC[C@@H](Nc2ccc(F)c(C)c2)C(=O)NO)ccc1F	inactive	
CO[C@H](C[C@H](CCCCCNCc1ccc(F)cc1)C(=O)NO)c1ccc(F)cc1	inactive	
Cc1cc(CNCCCC[C@@H](Nc2cc(C)c(F)c(C)c2)C(=O)NO)ccc1F	Active	inactive
Cc1cc(O[C@H](CCCCNCc2ccc(F)cc2)C(=O)NO)cc(C)c1F	inactive	
O=C(NO)[C@@H](CCCCNCc1ccc(F)cc1)Nc1ccc(F)c(Cl)c1	inactive	
Cc1cc(N[C@H](CCCCNCc2ccc(F)cc2)C(=O)NO)cc(C)c1F	Active	Active
Cc1cc(O[C@H](CCCCCNCCc2ccc(F)cc2)C(=O)NO)cc(C)c1F	inactive	
